Source: US11104672B2, “Polymorphs” (Syngenta Participations AG, priority 2017, dated 2021)

Test: Stability of polymorphs: stirring in dimethyl carbonate, crystals characterised by DSC and pXRD
Assay type: physicochemical
Conditions: stirred in 5 ml dimethyl carbonate for two days, crystals isolated, air dried
Experimental: Powder X-ray diffraction analysis of solid material was carried out using the Bruker D8 powder diffractometer at room temperature and at relative humidities above 40%. Samples were mounted in Perspex sample holders and the samples flattened. The sample holder was rotated and X-rays were collected from 4° to 34° 2-theta, with a scan time of 25 to 30 minutes depending on the pattern intensity.
DSC was carried out using a Mettler Toledo DSC1. A sample loading of around 5 mg was used and this was heated from 25° C. to 160° C. at a rate of 10° C./minute. The lid of the DSC crucible was pierced to allow the escape of any gas formed during the heating of the sample.
A sample of the polymorph designated Form A(c) was stirred in 5 ml dimethyl carbonate for two days. The crystals were isolated, air dried and characterised by DSC and pXRD.

In the case of `CCN1OC[C@@H](NC(=O)c2ccc(C3=NO[C@@](c4cc(Cl)c(F)c(Cl)c4)(C(F)(F)F)C3)cc2C)C1=O` [Form A(c)], the “Polymorphic stability (solid form found after stirring)” value is reported as “all of the Form A(c) had converted into Form (A)a”.
